Consider 16 compounds from ChEMBL document CHEMBL3085626, “Synthesis and evaluation of multi-target-directed ligands against Alzheimer's disease based on the fusion of donepezil and ebselen” (J Med Chem, 2013).

The IC50 is the concentration needed to halve the response being measured. Read a low IC50 as greater potency in that assay. What is called Papp is the rate of passage across a membrane or cell layer, normalised by area and donor concentration. Higher therefore signals fast passage. As usually defined, the Ki is a dissociation constant, usually derived from enzyme kinetics or from competition with a known ligand.

The source made the active and inactive calls. No cut-off for these calls is given here.

One data set has as its target Cholinesterase (Equus caballus, UniProt P81908).
The target in data set [1] is T1, Acetylcholinesterase (Electrophorus electricus, UniProt O42275).
Description: Inhibition of electric eel AChE using acetylthiocholine chloride as substrate preincubated for 15 mins followed by substrate addition measured every 1 min by Ellman's method
Data set [2] has as its target Acetylcholinesterase (Homo sapiens, UniProt P22303). Put plainly: Inhibition of human erythrocyte AChE using acetylthiocholine chloride as substrate preincubated for 15 mins followed by substrate addition measured every 1 min by Ellman's method.
The nature of a further data set: in vitro. The settings on record: PAMPA. For orientation: PAMPA measures passive passage across an artificial lipid membrane.
Data set [3] in a line: Acute toxicity in po dosed KM mouse measured for 14 days. The conditions noted are these: in vivo. The format is organism-based.
Data set [4] concerns Mus musculus. Kind of data set: Acute toxicity in KM mouse assessed as effect on body weight up to 2000 mg/kg, po after 4 hrs. The format is organism-based. Details: dose 2000 mg/kg, route oral. The settings on record: in vivo.
In data set [5] the test system is Mus musculus. Kind of data set: Acute toxicity in KM mouse assessed as effect on food consumption up to 2000 mg/kg, po after 4 hrs. It is filed as organism-based. On the set-up: dose 2000 mg/kg, route oral. The conditions noted are these: in vivo.
In data set [6] the test system is Mus musculus. Put plainly: Acute toxicity in KM mouse assessed as effect on water consumption up to 2000 mg/kg, po after 4 hrs. On the set-up: dose 2000 mg/kg, route oral. The settings on record: in vivo. It is filed as organism-based.
Data set [7] deals with Mus musculus. Put plainly: Acute toxicity in KM mouse assessed as mortality up to 2000 mg/kg, po after 24 hrs. It is filed as organism-based. Details: dose 2000 mg/kg, route oral. The conditions noted are these: in vivo.
The target of data set [8] is T1, Acetylcholinesterase. Kind of data set: […] inhibition of electric eel AChE using acetylthiocholine chloride as substrate preincubated for 15 mins followed by substrate addition by Lineweaver-Burk plot analysis.
Data set [9] deals with Acetylcholinesterase (Electrophorus electricus) (UniProt O42275). Put plainly: Mixed-type inhibition of electric eel AChE using acetylthiocholine chloride as substrate preincubated for 15 mins followed by substrate addition by Lineweaver-Burk plot analysis.
Acetylcholinesterase (Electrophorus electricus), sequence (O42275 24-633 limits assumed): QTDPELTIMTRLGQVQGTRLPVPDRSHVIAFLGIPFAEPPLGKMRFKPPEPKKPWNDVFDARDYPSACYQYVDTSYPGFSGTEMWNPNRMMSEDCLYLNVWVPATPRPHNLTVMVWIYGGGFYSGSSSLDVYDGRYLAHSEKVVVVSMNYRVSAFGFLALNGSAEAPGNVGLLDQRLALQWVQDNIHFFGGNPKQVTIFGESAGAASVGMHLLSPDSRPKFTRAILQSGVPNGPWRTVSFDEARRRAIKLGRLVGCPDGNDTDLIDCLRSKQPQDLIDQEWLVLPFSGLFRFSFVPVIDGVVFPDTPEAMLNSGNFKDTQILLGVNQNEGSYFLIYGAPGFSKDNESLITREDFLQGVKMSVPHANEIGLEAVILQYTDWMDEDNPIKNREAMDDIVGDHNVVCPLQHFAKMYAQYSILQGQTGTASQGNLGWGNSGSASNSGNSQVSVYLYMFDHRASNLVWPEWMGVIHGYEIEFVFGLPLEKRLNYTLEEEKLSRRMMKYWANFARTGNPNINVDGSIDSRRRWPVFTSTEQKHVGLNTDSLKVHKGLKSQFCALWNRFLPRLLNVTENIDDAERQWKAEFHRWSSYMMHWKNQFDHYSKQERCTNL

T1 sequence (O42275 whole entry): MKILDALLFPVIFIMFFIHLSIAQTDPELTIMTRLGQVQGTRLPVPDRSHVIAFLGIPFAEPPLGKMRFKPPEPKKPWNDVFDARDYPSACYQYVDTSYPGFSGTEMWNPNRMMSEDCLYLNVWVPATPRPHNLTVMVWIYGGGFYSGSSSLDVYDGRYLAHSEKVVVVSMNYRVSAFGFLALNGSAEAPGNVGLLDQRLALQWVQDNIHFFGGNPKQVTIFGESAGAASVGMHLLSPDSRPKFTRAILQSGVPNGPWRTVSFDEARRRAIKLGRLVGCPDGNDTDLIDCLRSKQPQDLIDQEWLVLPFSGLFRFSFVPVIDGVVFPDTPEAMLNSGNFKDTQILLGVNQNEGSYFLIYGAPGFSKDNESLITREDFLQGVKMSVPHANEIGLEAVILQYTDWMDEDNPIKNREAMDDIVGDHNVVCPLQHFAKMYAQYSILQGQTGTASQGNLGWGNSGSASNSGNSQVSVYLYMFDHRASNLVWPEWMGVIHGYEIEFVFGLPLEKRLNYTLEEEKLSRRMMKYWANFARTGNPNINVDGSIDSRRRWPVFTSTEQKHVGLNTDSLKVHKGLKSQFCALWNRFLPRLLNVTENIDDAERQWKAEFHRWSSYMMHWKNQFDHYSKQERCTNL
Cholinesterase, sequence (P81908 whole entry): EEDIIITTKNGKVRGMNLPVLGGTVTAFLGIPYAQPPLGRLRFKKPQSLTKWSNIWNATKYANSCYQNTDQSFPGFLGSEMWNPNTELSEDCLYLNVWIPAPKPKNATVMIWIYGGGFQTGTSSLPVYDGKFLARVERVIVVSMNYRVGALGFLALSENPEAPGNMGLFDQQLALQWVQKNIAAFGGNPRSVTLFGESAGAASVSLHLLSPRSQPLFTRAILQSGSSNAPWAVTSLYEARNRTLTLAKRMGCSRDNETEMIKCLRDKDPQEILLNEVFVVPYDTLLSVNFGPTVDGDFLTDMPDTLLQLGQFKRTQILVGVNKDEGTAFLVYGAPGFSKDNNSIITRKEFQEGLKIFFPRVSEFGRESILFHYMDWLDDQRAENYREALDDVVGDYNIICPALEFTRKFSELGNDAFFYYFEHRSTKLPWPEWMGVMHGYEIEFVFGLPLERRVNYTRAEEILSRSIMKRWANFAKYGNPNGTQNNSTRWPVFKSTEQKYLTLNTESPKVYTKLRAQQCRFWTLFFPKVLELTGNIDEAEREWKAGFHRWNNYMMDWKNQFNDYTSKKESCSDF
Acetylcholinesterase (Homo sapiens, UniProt P22303), sequence (P22303 whole entry): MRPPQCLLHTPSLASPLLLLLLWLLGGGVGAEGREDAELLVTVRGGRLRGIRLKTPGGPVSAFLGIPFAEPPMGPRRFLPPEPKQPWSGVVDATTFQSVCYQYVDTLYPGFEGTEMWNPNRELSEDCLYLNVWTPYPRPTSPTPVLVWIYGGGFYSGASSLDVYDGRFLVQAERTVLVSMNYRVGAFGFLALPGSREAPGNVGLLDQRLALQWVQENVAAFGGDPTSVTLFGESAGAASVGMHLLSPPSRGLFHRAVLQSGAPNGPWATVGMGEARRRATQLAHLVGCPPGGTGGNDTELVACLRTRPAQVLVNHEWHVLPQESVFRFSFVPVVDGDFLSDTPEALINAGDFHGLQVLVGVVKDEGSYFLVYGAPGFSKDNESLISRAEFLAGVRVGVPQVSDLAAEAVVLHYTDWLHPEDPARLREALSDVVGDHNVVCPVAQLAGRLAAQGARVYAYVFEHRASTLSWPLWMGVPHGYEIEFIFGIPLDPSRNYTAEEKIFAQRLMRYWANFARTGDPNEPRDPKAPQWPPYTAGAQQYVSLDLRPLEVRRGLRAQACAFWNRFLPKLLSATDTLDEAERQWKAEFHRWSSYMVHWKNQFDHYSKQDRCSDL
Description for in vitro: Effective permeability of the compound at 5 mg/mL after 10 hrs by PAMPA

On to `O=c1c2ccc(F)cc2[se]n1CCC1CCN(Cc2ccccc2)CC1`, for which the IC50 against Cholinesterase is 3670 nM; at Acetylcholinesterase [1], 224 nM.

For the compound `COc1cc2[se]n(CCCC3CCN(Cc4ccccc4)CC3)c(=O)c2cc1OC`, the IC50 is 231 nM against Acetylcholinesterase [2], 1500 nM at Cholinesterase and 72 nM against Acetylcholinesterase [1]. The same compound registered a Papp at 10 h, 5 mg/mL in the data set “in vitro” of 10.3 ×10⁻⁶ cm/s.

On to `O=c1c2ccc(Cl)cc2[se]n1CCC1CCN(Cc2ccccc2)CC1`, for which the IC50 against Cholinesterase is 2350 nM; against Acetylcholinesterase [1] it was 206 nM.

For the compound `COc1cc2[se]n(CC3CCN(Cc4ccccc4)CC3)c(=O)c2cc1OC`, the IC50 on Cholinesterase amounted to 3920 nM; against Acetylcholinesterase [1], 4230 nM.

`COc1cc2[se]n(CCCCC3CCN(Cc4ccccc4)CC3)c(=O)c2cc1OC`: the IC50 stood at 103 nM at Acetylcholinesterase [2], 517 nM against Cholinesterase and 38 nM against Acetylcholinesterase [1]. The Papp at 10 h, 5 mg/mL in “in vitro” is 15.8 ×10⁻⁶ cm/s.

Turning to `O=c1c2ccc(F)cc2[se]n1C1CCN(Cc2ccccc2)CC1`, the values for the IC50 against Cholinesterase and at Acetylcholinesterase [1] were 10600 nM and 19700 nM, respectively.

With `O=c1c2ccccc2[se]n1CCC1CCN(Cc2ccccc2)CC1`, the IC50 came to 2130 nM at Cholinesterase and 382 nM against Acetylcholinesterase [1].

With `O=c1c2ccc(Cl)cc2[se]n1C1CCN(Cc2ccccc2)CC1`, the half-maximal inhibitory concentration (IC50) against Cholinesterase came out at 21500 nM; on Acetylcholinesterase [1] it was 10100 nM.

Take `O=c1c2ccc(F)cc2[se]n1CC1CCN(Cc2ccccc2)CC1`: the IC50 was 3460 nM at Cholinesterase and 12300 nM at Acetylcholinesterase [1].

For the compound `COc1cc2[se]n(C3CCN(Cc4ccccc4)CC3)c(=O)c2cc1OC`, the results for the 50% inhibitory concentration (IC50) at Cholinesterase and on Acetylcholinesterase [1] were 9460 nM and 11800 nM, respectively.

Turning to `O=c1c2ccccc2[se]n1CC1CCN(Cc2ccccc2)CC1`, the values for the half-maximal inhibitory concentration (IC50) at Cholinesterase and against Acetylcholinesterase [1] were 3630 nM and 19800 nM, respectively.

On to `O=c1c2ccccc2[se]n1-c1ccccc1` [EBSELEN], for which the IC50 against Cholinesterase amounted to 10400 nM; at Acetylcholinesterase [1], 41000 nM.

With `COc1cc2[se]n(CCC3CCN(Cc4ccccc4)CC3)c(=O)c2cc1OC`, the MTD at 336 h in [3] was determined as 2000 mg/kg. The Activity result in the data set with Mus musculus [4], with Mus musculus [5], with Mus musculus [6] and in the data set with Mus musculus [7] was “Non-toxic” throughout. In addition, the inhibitory constant (Ki) at Acetylcholinesterase [8] worked out at 17 nM. Moreover, the inhibition result in [9] was “Active”. For the same compound, the IC50 on Acetylcholinesterase [2] was 97 nM; at Cholinesterase, 1590 nM; on Acetylcholinesterase [1], 42 nM. Moreover, the Papp at 10 h, 5 mg/mL in “in vitro” was 8.6 ×10⁻⁶ cm/s.

For the compound `O=c1c2ccc(Cl)cc2[se]n1CC1CCN(Cc2ccccc2)CC1`, the IC50 is 2300 nM against Cholinesterase and 6160 nM at Acetylcholinesterase [1].

Turning to `O=c1c2ccccc2[se]n1C1CCN(Cc2ccccc2)CC1`, the IC50 on Cholinesterase amounted to 8320 nM; at Acetylcholinesterase [1] it was 17600 nM.

On to `COc1cc2c(cc1OC)[Se](=O)N(CCC1CCN(Cc3ccccc3)CC1)C2=O` (stereo unspecified), for which the concentration for half-maximal inhibition (IC50) against Acetylcholinesterase [2] amounted to 163 nM; on Cholinesterase it was 1360 nM; on Acetylcholinesterase [1], 43 nM.
